Assay results reported in ChEMBL document CHEMBL1201862, “PubChem BioAssay data set” (2004).
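Values below derive from 48-hour exposures of cells grown in 96-well plates, with endpoints linearly interpolated between the two concentrations bracketing the appropriate inhibition level. GI50 marks 50% less growth.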 Activity calls are given as the source filed them. Rule as the data show it: active = GI50 up to about 1.1 µM and inactive = higher.

Legend:
Experiment in all cases: NCI-60 cell line screen, 48 h
786-0 = test system: 786-0
COLO 205 = test system: COLO 205
HCT-15 = test system: HCT-15
K562 = test system: K562
KM12 = test system: KM12
M14 = test system: M14
MDA-MB-435 = test system: MDA-MB-435
MDA-N = test system: MDA-N
MOLT-4 = test system: MOLT-4
NCI/ADR-RES = test system: NCI/ADR-RES
SK-MEL-28 = test system: SK-MEL-28
SK-MEL-2 = test system: SK-MEL-2
SK-OV-3 = test system: SK-OV-3
SN12C = test system: SN12C
SNB-19 = test system: SNB-19
UACC-257 = test system: UACC-257
UACC-62 = test system: UACC-62
UO-31 = test system: UO-31
HOP-92 = test system: HOP-92
OVCAR-4 = test system: OVCAR-4

Measured: GI50

Cc1ccc(NC(=O)CC(=O)n2nc(C)c(/N=N/c3ccc(S(=O)(=O)CCOS(=O)(=O)O)cc3)c2C)cc1
inactive: 786-0 > 100 µM | COLO 205 > 100 µM | K562 > 100 µM | KM12 > 100 µM | M14 > 100 µM | MDA-MB-435 > 100 µM | MDA-N > 100 µM | MOLT-4 > 100 µM | NCI/ADR-RES > 100 µM | SK-MEL-28 > 100 µM | SK-MEL-2 > 100 µM | SK-OV-3 > 100 µM | SN12C > 10 µM | SNB-19 > 100 µM | UACC-257 80 µM | UACC-62 > 100 µM | UO-31 > 100 µM
> 10 µM: HCT-15

CCOC(=O)c1cc(Sc2ccc(N)c(C(=O)OCC)c2)ccc1N
inactive: 786-0 26.4 µM | COLO 205 60.8 µM | HOP-92 58.2 µM | K562 7.98 µM | KM12 5.62 µM | M14 > 100 µM | MDA-N 5.43 µM | MOLT-4 8.24 µM | NCI/ADR-RES 5.25 µM | OVCAR-4 17.8 µM | SK-MEL-28 > 100 µM | SK-MEL-2 > 100 µM | SK-OV-3 > 100 µM | SN12C 18 µM | SNB-19 > 100 µM | UACC-257 > 100 µM | UACC-62 9.42 µM
> 100 µM: HCT-15

CC(=O)NNC(=S)N/C=C1/C(=O)Oc2ccccc2C1=O
inactive: 786-0 > 100 µM | COLO 205 > 100 µM | K562 > 100 µM | KM12 > 100 µM | M14 > 100 µM | MDA-MB-435 > 100 µM | MDA-N > 100 µM | MOLT-4 > 100 µM | NCI/ADR-RES > 100 µM | OVCAR-4 > 100 µM | SK-MEL-28 > 100 µM | SK-MEL-2 > 100 µM | SN12C > 100 µM | SNB-19 > 100 µM | UACC-257 > 100 µM | UACC-62 51.6 µM | UO-31 > 100 µM
> 100 µM: HCT-15

CC1(C)OC[C@@H](O)[C@H](C#N)CO1
inactive: 786-0 > 100 µM | COLO 205 > 100 µM | K562 > 100 µM | KM12 > 100 µM | M14 > 100 µM | MDA-MB-435 > 100 µM | MDA-N > 100 µM | MOLT-4 > 100 µM | OVCAR-4 > 100 µM | SK-MEL-28 > 100 µM | SK-MEL-2 > 100 µM | SK-OV-3 > 100 µM | SN12C > 100 µM | SNB-19 > 100 µM | UACC-257 > 100 µM | UACC-62 > 100 µM | UO-31 > 100 µM
> 100 µM: HCT-15

O=c1[nH]c2ccc(O)cc2o1
> 100 µM: HCT-15
inactive: 786-0 > 100 µM | COLO 205 > 100 µM | K562 > 100 µM | KM12 > 100 µM | M14 > 100 µM | MDA-N > 100 µM | MOLT-4 > 100 µM | NCI/ADR-RES > 100 µM | OVCAR-4 > 100 µM | SK-MEL-28 > 100 µM | SK-OV-3 > 100 µM | SN12C > 100 µM | SNB-19 > 100 µM | UACC-257 > 100 µM | UACC-62 > 100 µM | UO-31 > 100 µM

COC(CN(C)C(=S)Nc1cccc2ccccc12)OC
inactive: 786-0 > 10 µM | COLO 205 > 10 µM | K562 > 10 µM | KM12 > 10 µM | M14 > 10 µM | MDA-MB-435 > 10 µM | MDA-N > 10 µM | MOLT-4 > 10 µM | NCI/ADR-RES > 10 µM | OVCAR-4 > 10 µM | SK-MEL-28 > 10 µM | SK-MEL-2 > 10 µM | SK-OV-3 > 10 µM | SN12C > 10 µM | SNB-19 > 10 µM | UACC-257 > 10 µM | UACC-62 > 10 µM | UO-31 > 10 µM
> 10 µM: HCT-15
